Experimental data reported in US6838414B2, “Substituted aryl sulphonyl(thio)ureas used as herbicides” (Bayer Aktiengesellschaft, priority 1996, dated 2005).

Experiments:
Format in all cases: in vivo
weeds [1] = test: Pre-emergence test (overall statement); conditions: application rates between 30 g and 125 g of a.i. per hectare
Description: (§1) To produce a suitable preparation of active compound, 1 part by weight of active compound is mixed with the stated amount of solvent, the stated amount of emulsifier is added and the concentrate is diluted with water to the desired concentration.
(§2) Seeds of the test plants are sown in normal soil. After about 24 hours, the soil is sprayed with the preparation of the active compound. Advantageously, the amount of water per unit area is kept constant. The active compound concentration in the preparation is not important, only the active compound application rate per unit area is critical.
(§3) After three weeks, the degree of damage to the plants is rated in % damage in comparison with the development of the untreated control.
(§4) The figures denote: • 0%=no effect (like untreated control) • 100%=total destruction

Stellaria = test: Pre-emergence test/greenhouse; conditions: after three weeks
Description: as §1, §2, §3, §4

Amaranthus = test: Pre-emergence test/greenhouse; conditions: after three weeks
Description: as §1, §2, §3, §4

Lolium = test: Pre-emergence test/greenhouse; conditions: after three weeks
Description: as §1, §2, §3, §4

Alopecurus [2] = test: Pre-emergence test/greenhouse; conditions: after three weeks
Description: as §1, §2, §3, §4

Chenopodium = test: Pre-emergence test/greenhouse; conditions: after three weeks
Description: as §1, §2, §3, §4

Sorghum = test: Pre-emergence test/greenhouse; conditions: after three weeks
Description: as §1, §2, §3, §4

Abutilon = test: Post-emergence test/greenhouse; conditions: rated after three weeks vs untreated control
Description: as §1
(§5) Test plants which have a height of 5-15 cm are sprayed with the preparation of the active compound in such a way as to apply the particular amounts of active compound desired per unit area. The concentration of the spray liquor is chosen so that the amounts of active compound desired in each case are applied in 1000 l of water/ha.
as §3, §4

Matricaria = test: Post-emergence test/greenhouse; conditions: rated after three weeks vs untreated control
Description: as §1, §5, §3, §4

Alopecurus [3] = test: Post-emergence test/greenhouse; conditions: rated after three weeks vs untreated control
Description: as §1, §5, §3, §4

Echinochloa = test: Post-emergence test/greenhouse; conditions: rated after three weeks vs untreated control
Description: as §1, §5, §3, §4

weeds [4] = test: Post-emergence test/greenhouse
Description: as §1, §5, §3, §4

[5] = application rate 30 g of ai./ha
[6] = application rate 60 g of ai./ha

SMILES | activity against weeds (weeds [1]) | Steltaria, % damage (Stellaria; 60 g of ai./ha) [%] | Amaranthus, % damage (Amaranthus; 60 g of ai./ha) [%] | Lolium, % damage (Lolium; 60 g of ai./ha) [%] | Alopecurus, % damage (Alopecurus [2]; 60 g of ai./ha) [%] | Chenopodium, % damage (Chenopodium; 60 g of ai./ha) [%] | Sorghum, % damage (Sorghum; 60 g of ai./ha) [%] | degree of damage to the plants, Abutilon (Abutilon; [5]) [%] | degree of damage to the plants, Matricaria (Matricaria; [5]) [%] | degree of damage to the plants, Alopecurus (Alopecurus [3]; [5]) [%] | degree of damage to the plants, Echinochloa (Echinochloa; [5]) [%] | activity against weeds (weeds [4]) | degree of damage to the plants, Abutilon (Abutilon; [6]) [%] | degree of damage to the plants, Matricaria (Matricaria; [6]) [%] | degree of damage to the plants, Alopecurus (Alopecurus [3]; [6]) [%] | degree of damage to the plants, Echinochloa (Echinochloa; [6]) [%] | also measured
CCOc1cccc(C(F)(F)F)c1S(=O)(=O)NC(=O)Nc1nc(C)nc(OC)n1 [Example 4] | very strong activity against weeds | 95 | 100 | 100 | 100 | 100 | 100 | 100 | 100 | 90 | 90 | very strong activity against weeds | – | – | – | – | –
COc1nc(C)nc(NC(=O)NS(=O)(=O)c2c(OC)cccc2C(F)(F)F)n1 [Example 5] | very strong activity against weeds | 100 | 100 | 100 | 100 | 100 | 100 | 100 | 100 | 80 | 100 | very strong activity against weeds | – | – | – | – | –
COc1nc(NC(=O)NS(=O)(=O)c2c(OC)cccc2C(F)(F)F)nc(OC)n1 [Example 6] | very strong activity against weeds | 100 | 100 | 100 | 100 | 100 | 100 | 90 | 100 | 60 | 100 | very strong activity against weeds | – | – | – | – | –
CCOc1cccc(C(F)(F)F)c1S(=O)(=O)NC(=O)Nc1nc(OC)nc(OC)n1 [Example 7] | very strong activity against weeds | 95 | 95 | 95 | 100 | 100 | 100 | 95 | 100 | 95 | 95 | very strong activity against weeds | – | – | – | – | –
CCCOc1cccc(C(F)(F)F)c1S(=O)(=O)NC(=O)Nc1nc(C)nc(OC)n1 [Example 9] | very strong activity against weeds | – | – | – | – | – | – | – | – | – | – | very strong activity against weeds | – | – | – | – | Steltaria, % damage (Stellaria; 30 g of ai./ha): 100%; Amaranthus, % damage (Amaranthus; 30 g of ai./ha): 100%; Lolium, % damage (Lolium; 30 g of ai./ha): 100%; Alopecurus, % damage (Alopecurus [2]; 30 g of ai./ha): 100%; Chenopodium, % damage (Chenopodium; 30 g of ai./ha): 100%; Sorghum, % damage (Sorghum; 30 g of ai./ha): 90%; degree of damage to the plants, Abutilon (Abutilon; application rate 8 g of ai./ha): 100%; degree of damage to the plants, Matricaria (Matricaria; application rate 8 g of ai./ha): 95%; degree of damage to the plants, Alopecurus (Alopecurus [3]; application rate 8 g of ai./ha): 90%; degree of damage to the plants, Echinochloa (Echinochloa; application rate 8 g of ai./ha): 80%
COc1nc(C)nc(NC(=O)NS(=O)(=O)c2c(OC(C)C)cccc2C(F)(F)F)n1 [Example 12] | very strong activity against weeds | – | – | – | – | – | – | 95 | 100 | 95 | 90 | very strong activity against weeds | – | – | – | – | Steltaria, % damage (Stellaria; 30 g of ai./ha): 100%; Amaranthus, % damage (Amaranthus; 30 g of ai./ha): 100%; Lolium, % damage (Lolium; 30 g of ai./ha): 100%; Alopecurus, % damage (Alopecurus [2]; 30 g of ai./ha): 100%; Chenopodium, % damage (Chenopodium; 30 g of ai./ha): 95%; Sorghum, % damage (Sorghum; 30 g of ai./ha): 100%
COc1cc(Cl)nc(NC(=O)NS(=O)(=O)c2c(OC)cccc2C(F)(F)F)n1 [Example 15] | very strong activity against weeds | 95 | 95 | 95 | 100 | 100 | 95 | – | – | – | – | very strong activity against weeds | 95 | 100 | 70 | 90 | –
CCOc1cccc(C)c1S(=O)(=O)NC(=O)Nc1nc(C)cc(OC)n1 [Example 27] | very strong activity against weeds | 100 | 100 | 100 | 100 | 100 | 100 | – | – | – | – | very strong activity against weeds | 100 | 90 | 95 | 95 | –
CCOc1cccc(C)c1S(=O)(=O)NC(=O)Nc1nc(OC)nc(OC)n1 [Example 31] | very strong activity against weeds | 95 | 95 | 100 | 95 | 100 | 90 | – | – | – | – | very strong activity against weeds | 100 | 100 | 80 | 80 | –
CCOc1cccc(C)c1S(=O)(=O)NC(=O)Nc1nc(C)nc(OC)n1 [Example 32] | very strong activity against weeds | 100 | 100 | 100 | 95 | 100 | 95 | – | – | – | – | very strong activity against weeds | 100 | 100 | 70 | 90 | –
COc1nc(NC(=O)NS(=O)(=O)c2c(C)cccc2OC(C)C)nc(OC)n1 [Example 38] | very strong activity against weeds | – | – | – | – | – | – | 95 | 95 | 60 | 70 | very strong activity against weeds | – | – | – | – | Steltaria, % damage (Stellaria; 30 g of ai./ha): 100%; Amaranthus, % damage (Amaranthus; 30 g of ai./ha): 80%; Lolium, % damage (Lolium; 30 g of ai./ha): 100%; Alopecurus, % damage (Alopecurus [2]; 30 g of ai./ha): 100%; Chenopodium, % damage (Chenopodium; 30 g of ai./ha): 100%; Sorghum, % damage (Sorghum; 30 g of ai./ha): 100%
